Patent publication US7365069B2, “Pyrimidone derivatives” (Bexel Pharmaceuticals Inc., priority 2002, dated 2008)

How the values were obtained:
Male Wistar rats [1] = experiment: Rat carrageenan paw edema test; assay type: in vivo; conditions: 10 mg/kg body weight, oral, paw volume 3 hours after carrageenan, read-out: Rat Paw Edema model % inhibition
Method: Rat Carrageenan Paw Edema Test
(§1) The carrageenan paw edema test is performed as described by Winter et al (Proc. Soc. Exp. Biol. Med, 111, 544, 1962). Male Wistar rats are selected and the body weights are equivalent within each group. The rats are fasted for eighteen hours with free access to water. The rats are dosed orally with the test compound suspended in vehicle containing 0.5% methylcellulose. The control rats are administered the vehicle alone. After an hour, the rats are injected with 0.1 ml of 1% Carrageenan solution in 0.9% saline into the sub-plantar surface of the right hind paw. Paw volume is measured using water plethysmograph before and after 3 hours of carrageenan injection. The average of foot swelling in drug treated animals is compared with that of control animals. Anti-inflammatory activity is expressed as the percentage inhibition of edema compared with control group [Arzneim-Forsch/Drug Res., 43(I), 1, 44-50,1993; Ottemess and Bliven, Laboratory Models for Testing NSAIDs, In Non-Steroidal Anti-Inflammatory Drugs, (J. Lombardino, ed. 1985)]. In order to evaluate their role on the ulcer formation, the animals are sacrificed and the stomach is taken out and flushed with 1% formalin. The stomach is opened along the greater curvature. The haemorrhagic puncta and sulci are identified microscopically and images are captured. The stomach lesions are calculated.

Male Wistar rats [2] = experiment: Gastroulcerogenic potential (stomach lesions after the paw edema test); assay type: in vivo; conditions: 10 mg/kg body weight, oral, rat
Method: as §1

COX-2 = biological target: T1, COX-2 (Homo sapiens, UniProt P35354); experiment: Human whole blood assay, COX-2 inhibition (PGE2 ELISA after LPS); assay type: cell-based; conditions: LPS 24 h
T1 construct: incubation of human blood with lipopolysaccharide (LPS), which induces COX-2 production in the blood; endogenous in cells; host or cells: fresh human whole blood from volunteers, treated with aspirin and then LPS
T1 sequence (P35354 18-604): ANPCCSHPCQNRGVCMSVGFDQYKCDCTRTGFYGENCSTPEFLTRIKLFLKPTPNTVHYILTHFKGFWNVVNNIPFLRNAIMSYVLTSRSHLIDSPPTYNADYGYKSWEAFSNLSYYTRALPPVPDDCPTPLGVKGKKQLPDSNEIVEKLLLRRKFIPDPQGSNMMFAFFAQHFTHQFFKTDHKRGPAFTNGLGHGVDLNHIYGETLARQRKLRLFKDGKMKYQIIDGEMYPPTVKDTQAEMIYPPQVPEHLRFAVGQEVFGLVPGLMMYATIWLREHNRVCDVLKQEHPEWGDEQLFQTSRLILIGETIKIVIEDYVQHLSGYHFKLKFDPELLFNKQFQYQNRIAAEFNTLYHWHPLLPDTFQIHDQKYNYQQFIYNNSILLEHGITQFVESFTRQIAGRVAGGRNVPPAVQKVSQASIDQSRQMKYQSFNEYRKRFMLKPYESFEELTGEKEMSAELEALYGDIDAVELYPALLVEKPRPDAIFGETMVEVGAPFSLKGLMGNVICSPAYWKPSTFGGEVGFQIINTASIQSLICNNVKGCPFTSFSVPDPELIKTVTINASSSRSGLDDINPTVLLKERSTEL
Summary of the method: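 Fresh EDTA blood from healthy male donors was given aspirin (10 μg/ml) to inactivate COX-1. LPS (10 μg/ml) was then added together with test agent or vehicle, and the blood was incubated 24 h at 37° C. Plasma PGE2 was measured by ELISA.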

TNF-α = TNF-α production in LPS-stimulated human whole blood; assay type: cell-based; conditions: LPS 4 h
Summary of the method: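 Human whole blood pre-incubated with compound 15 min at 37° C., then stimulated with LPS (Salmonella abortus equi, 1 μg/ml) for 4 h at 37° C. in 5% CO2. TNF-α quantified by ELISA.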

IL-6 = IL-6 production in LPS-stimulated human whole blood; assay type: cell-based; conditions: LPS 4 h
Method: This assay determines the effect of test compounds on the production of IL-6 from human whole blood. Compounds are tested for their ability to downregulate the production of IL-6 in activated whole blood. The test compounds are pre-incubated for 15 minutes at 37° C. and then stimulated with Lipopolysaccharide (Salmonella abortus equi, 1 μg/ml) for 4 h at 37° C. in 5% CO2. The levels of Interleukin-6 are estimated using Enzyme linked Immunosorbent assay performed in a 96 well format as per the procedure of the manufacturer (Cayman Chemical, Ann Arbor, USA).

NCI-H460 = experiment: DTP human tumor cell line one-dose prescreen, NCI-H460; assay type: cell-based; conditions: 48 hours, Alamar Blue, test/control, read-out: Percentage growth Lung NCI-H460
MCF-7 = experiment: DTP human tumor cell line one-dose prescreen, MCF-7; assay type: cell-based; conditions: MCF7, 48 hours, Alamar Blue, test/control, read-out: Percentage growth Breast MCF-7
SF-268 = experiment: DTP human tumor cell line one-dose prescreen, SF-268; assay type: cell-based; conditions: 48 hours, Alamar Blue, test/control, read-out: Percentage growth CNS SF-268

| Structure (SMILES) | inhibition in vivo at 10 mg/kg (Male Wistar rats [1]) [%] | Gastroulcerogenic potential (% incidence of ulceration) (Male Wistar rats [2]) [%] | melting point [°C] | activity at 50 µM (NCI-H460) [%] | activity at 50 µM (MCF-7) [%] | activity at 50 µM (SF-268) [%] | other results |
| --- | --- | --- | --- | --- | --- | --- | --- |
| CSc1ccc(-c2nc(SC)c(C#N)c(=O)n2-c2ccc(C)cc2)cc1 [Example 6, 5-cyano-1-(4-methylphenyl)-4-(methylthio)-2-[4-(methylthio)phenyl]-6-oxo-1,6-dihydropyrimidine] | 40.2 | 25 | 196 to 198 |  |  |  | inhibition at 1 µM (COX-2): 55.7%; inhibition at 1 µM (TNF-α): 28.8%; inhibition at 0.25 µM (IL-6): 41.4% |
| CNc1nc(-c2ccc(F)cc2)n(-c2ccc(SC)cc2)c(=O)c1C#N [Example 56, 5-cyano-2-(4-fluorophenyl)-4-(methylamino)-1-[4-(methylthio)phenyl]-6-oxo-1,6-dihydropyrimidine] |  |  | 219 to 222 | 54 | 63 | 87 |  |
| CSc1ccc(-n2c(-c3ccc(Cl)cc3)nc(SC)c(C#N)c2=O)cc1 [Example 1, 5-cyano-2-(4-chlorophenyl)-4-(methylthio)-1-[4-(methylthio)phenyl]-6-oxo-1,6-dihydropyrimidine] | 29 | 75 | 206 to 207 |  |  |  | inhibition at 10 µM (COX-2; 10 μM): 13%; inhibition at 0.1 µM (TNF-α; 0.1 μM): 56.9%; inhibition at 0.1 µM (IL-6; 0.1 μM): 52.8% |
| CSc1ccc(-c2nc(SC)c(C#N)c(=O)n2-c2ccc(C(C)(C)C)cc2)cc1 [Example 22, 1-(4-tert-butylphenyl)-5-cyano-4-(methylthio)-2-[4-(methylthio)phenyl]-6-oxo-1,6-dihydropyrimidine] |  |  | 233 to 236 | 80 | 83 |  | inhibition at 1 µM (TNF-α): 62.7%; inhibition at 1 µM (IL-6): 66.3% |
| CSc1ccc(-c2nc(SC)c(C#N)c(=O)n2-c2ccc(C)c(C)c2)cc1 [Example 10, 5-cyano-1-(3,4-dimethylphenyl)-4-(methylthio)-2-[4-(methylthio)phenyl]-6-oxo-1,6-dihydropyrimidine] | 68.6 | 0 | 234 to 236 |  |  |  | inhibition at 0.1 µM (COX-2; 0.1 μM): 62.8%; inhibition at 10 µM (TNF-α; 10 μM): 26.4%; inhibition at 1 µM (IL-6): 48.6% |
| CS(=O)(=O)c1ccc(-n2c(-c3ccc(F)cc3)nc(N3CCOCC3)c(C(N)=O)c2=O)cc1 [Example 50, 5-carboxamido-2-(4-fluorophenyl)-1-[4-(methylsulfonyl)phenyl]-4-morpholin-4-yl-6-oxo-1,6-dihydropyrimidine] |  |  | 255 to 258 | 94 | 92 | 97 |  |
| CNc1nc(-c2ccc(F)cc2)n(-c2ccc(S(C)(=O)=O)cc2)c(=O)c1C(N)=O [Example 49, 5-carboxamido-2-(4-fluorophenyl)-4-(methylamino)-1-[4-(methylsulfonyl)phenyl]-6-oxo-1,6-dihydropyrimidine] |  |  | > 300 | 72 | 79 | 88 |  |
| CSc1ccc(-n2c(-c3ccc(F)cc3)nc(SC)c(C#N)c2=O)cc1 [Example 2, 5-cyano-2-(4-fluorophenyl)-4-(methylthio)-1-[4-(methylthio)phenyl]-6-oxo-1,6-dihydropyrimidine] | 39 | 25 | 204 to 207 |  |  |  | inhibition at 1 µM (COX-2): 53.4%; inhibition at 0.25 µM (IL-6): 45% |
